Data on 14 compounds can be found in patent US20040006236A1, “Diaminopropionic acid derivatives” (priority 1999, published 2004).

Where two headings read alike, the source gives them in different places.

The target of assay [1] is T1, LFA-1 binding to immobilized ICAM-1 (Homo sapiens, UniProt P05107+P20701).
T1 construct: made in house; host or cells: transfected 293 cells (LFA-1)
The assay is described as follows: LFA-1/ICAM-1 protein-protein assay (solid-phase ELISA). The protocol:
(a) LFA-1/ICAM-1 screening test: LFA-1/ICAM-1 antagonist activity, defined as the ability of compounds of the invention to block LFA-1 binding to immobilized ICAM-1, was quantitated using a solid-phase ELISA.
(§1) Typically, fusion protein consisting of the entire extracellular domain of human ICAM-1 and the Fc domain of human IgG (5dICAM-Ig) was coated onto 96-well microtiter plates (0.15 μg in 100 μL PBS) overnight at 4° C. The plates were then blocked with 150 μL of 1% BSA/1 mM MnCl2/0.14 M NaCl/20 mM HEPES, pH 7.2 for 1 h at 37° C. and washed 3 times (150 μL each) with Wash Buffer (50 mM Tris, pH 7.4/100 mM NaCl/1 mM MnCl2/0.05% Tween 20). Stock solutions (100 μM in 100% DMSO) of test compounds were diluted 50 fold with 150 μL of Binding Buffer (0.05% BSA/0.05% Tween 20/1 mM MnCl2/0.14 M NaCl/20 mM HEPES, pH 7.2) plus 10% DMSO. […] Fifty μL per well of each dilution was added to the ICAM-1 coated plates, followed by 50 μL per well of membrane-bound LFA-1 (280 ng/mL in Binding Buffer) derived from transfected 293 cells. The plates were shaken vigorously for 1 min (room temperature) and gently for 2 h (37° C.). After incubation, the plates were washed 3 times (150 μL each) with Wash Buffer. Mouse anti-human integrin β2 monoclonal antibody was added (100 μL/well, 1 μg/mL in Binding Buffer) and allowed to incubate for 1 h (37° C.) with gentle agitation. The plates were then washed 3 times with Wash Buffer. HRP-conjugated goat anti-mouse IgG (100 μL/well, 1:1500 dilution in Binding Buffer) was added to each well, followed by incubation for 1 h (37° C.), and concluded by three washes (150 μL each) with Wash Buffer. TMB solution (100 μL per well) was added for color development (10 min). The reaction was stopped by the addition of 100 μL of 1 M H3PO4 to each well. The plates were then read at 450 nm. The inhibitory activities of test compounds were determined by the IC50s.
as §1, with “LFA-1/ICAM-1 antagonist activity, defined as the ability to block LFA-1 binding to immobilized ICAM-1, was quantitated using a solid-phase ELISA. Typically,” for “Typically,”, “(0.05 %” for “(0.05%”, “nm.” for “nm. The inhibitory activities of test compounds were determined by the IC50s.”
(In general: An ELISA detects its analyte on a solid surface through an enzyme-linked reagent.)

Assay [2] deals with T2, ICAM-1 binding to immobilized Mac-1 (Homo sapiens, UniProt P05107+P11215).
T2 construct: made in house; host or cells: transfected 293 cells (Mac-1)
The assay is described as follows: Mac-1/ICAM-1 screening assay (solid-phase ELISA). As to the method: (b) Mac-1/ICAM-1 screening test: Mac-1/ICAM-1 antagonist activity, defined as the ability to compete with ICAM-1 binding to immobilized Mac-1, was quantitated by a solid-phase ELISA.
(§2) Membrane-bound Mac-1 derived from transfected 293 cells was coated onto 96-well microtiter plates (50 μL/well, 3 μg/mL Mac-1 in 20 mM Hepes, pH 7.2/0.14 M NaCl/1 mM MnCl2) overnight at 4° C. The plates were blocked with 100 μL/well of 0.5% BSA in 20 mM Hepes, pH 7.2/0.14 M NaCl/1 mM MnCl2 at 37° C. for 1 h and washed 3 times (120 μL each) with Binding Buffer (20 mM Hepes, pH 7.2/0.14 M NaCl/1 mM MnCl2/0.05% Tween 20). Test compounds were dissolved in 100% DMSO and diluted 1:50 in Binding Buffer plus 10% DMSO. A series of 1:4 dilutions were performed for each compound (concentration range, 0.12 nM-20 μM). Each dilution (25 μL/well) was added to the plates, followed by 25 μL/well of 5 dICAM-Ig (40 μg/mL in Binding Buffer). The plates were shaken vigorously for 1 min (room temperature), followed by gentle agitation for 2 h (37° C.), and washed with Binding Buffer (3 times, 120 μL each). HRP-conjugated goat anti-human IgG(Fc-specific) antibody (0.125 μg/mL in Binding Buffer plus 0.05% BSA) was added to each well (50 μL/well), followed by incubation for 1 h at 37° C. The plates were then washed 3 times with Binding Buffer (120 μL each). TMB solution (100 μL/well) was added to each well for color development for 10 min. The reaction was stopped with 1 M H3PO4 (100 μL/well) and the plates were read at 450 nm. The inhibitory activities of test compounds were determined by the IC50s.
as §2, with “Mac-1/ICAM-1 antagonist activity, defined as the ability to compete with ICAM-1 binding to immobilized Mac-1, was quantitated by a solid-phase ELISA. Membrane-bound” for “Membrane-bound”, “5dICAM-Ig” for “5 dICAM-Ig”, “nm.” for “nm. The inhibitory activities of test compounds were determined by the IC50s.”

Where [3] appears, read: read-out: LFA-1/ICAM-1 Protein-Protein Assay IC50.
The mark [4] stands for this setting: read-out: Mac-1/ICAM-1 Protein-Protein Assay IC50.

T2 sequence (P05107 23-769, other chains not shown): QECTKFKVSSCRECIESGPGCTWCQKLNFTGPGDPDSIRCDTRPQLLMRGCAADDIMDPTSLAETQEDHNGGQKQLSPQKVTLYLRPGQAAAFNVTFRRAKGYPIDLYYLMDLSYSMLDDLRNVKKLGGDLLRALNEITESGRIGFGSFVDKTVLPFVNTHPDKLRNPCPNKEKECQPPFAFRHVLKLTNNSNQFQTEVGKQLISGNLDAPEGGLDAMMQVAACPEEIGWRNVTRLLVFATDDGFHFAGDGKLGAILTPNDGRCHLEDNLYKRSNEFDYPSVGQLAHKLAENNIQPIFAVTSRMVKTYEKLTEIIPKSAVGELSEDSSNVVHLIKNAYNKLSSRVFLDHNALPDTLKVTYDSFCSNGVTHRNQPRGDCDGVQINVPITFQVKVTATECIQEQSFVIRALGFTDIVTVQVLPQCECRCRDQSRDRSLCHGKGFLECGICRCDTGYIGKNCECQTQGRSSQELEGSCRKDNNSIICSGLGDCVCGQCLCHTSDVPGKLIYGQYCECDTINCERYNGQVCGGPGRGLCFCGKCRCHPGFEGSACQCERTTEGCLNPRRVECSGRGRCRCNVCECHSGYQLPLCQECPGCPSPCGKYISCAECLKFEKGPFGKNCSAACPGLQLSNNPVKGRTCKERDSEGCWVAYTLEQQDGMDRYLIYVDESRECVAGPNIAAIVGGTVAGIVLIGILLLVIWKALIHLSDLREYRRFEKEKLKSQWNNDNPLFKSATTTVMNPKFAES
T1 sequence (P20701 26-1170): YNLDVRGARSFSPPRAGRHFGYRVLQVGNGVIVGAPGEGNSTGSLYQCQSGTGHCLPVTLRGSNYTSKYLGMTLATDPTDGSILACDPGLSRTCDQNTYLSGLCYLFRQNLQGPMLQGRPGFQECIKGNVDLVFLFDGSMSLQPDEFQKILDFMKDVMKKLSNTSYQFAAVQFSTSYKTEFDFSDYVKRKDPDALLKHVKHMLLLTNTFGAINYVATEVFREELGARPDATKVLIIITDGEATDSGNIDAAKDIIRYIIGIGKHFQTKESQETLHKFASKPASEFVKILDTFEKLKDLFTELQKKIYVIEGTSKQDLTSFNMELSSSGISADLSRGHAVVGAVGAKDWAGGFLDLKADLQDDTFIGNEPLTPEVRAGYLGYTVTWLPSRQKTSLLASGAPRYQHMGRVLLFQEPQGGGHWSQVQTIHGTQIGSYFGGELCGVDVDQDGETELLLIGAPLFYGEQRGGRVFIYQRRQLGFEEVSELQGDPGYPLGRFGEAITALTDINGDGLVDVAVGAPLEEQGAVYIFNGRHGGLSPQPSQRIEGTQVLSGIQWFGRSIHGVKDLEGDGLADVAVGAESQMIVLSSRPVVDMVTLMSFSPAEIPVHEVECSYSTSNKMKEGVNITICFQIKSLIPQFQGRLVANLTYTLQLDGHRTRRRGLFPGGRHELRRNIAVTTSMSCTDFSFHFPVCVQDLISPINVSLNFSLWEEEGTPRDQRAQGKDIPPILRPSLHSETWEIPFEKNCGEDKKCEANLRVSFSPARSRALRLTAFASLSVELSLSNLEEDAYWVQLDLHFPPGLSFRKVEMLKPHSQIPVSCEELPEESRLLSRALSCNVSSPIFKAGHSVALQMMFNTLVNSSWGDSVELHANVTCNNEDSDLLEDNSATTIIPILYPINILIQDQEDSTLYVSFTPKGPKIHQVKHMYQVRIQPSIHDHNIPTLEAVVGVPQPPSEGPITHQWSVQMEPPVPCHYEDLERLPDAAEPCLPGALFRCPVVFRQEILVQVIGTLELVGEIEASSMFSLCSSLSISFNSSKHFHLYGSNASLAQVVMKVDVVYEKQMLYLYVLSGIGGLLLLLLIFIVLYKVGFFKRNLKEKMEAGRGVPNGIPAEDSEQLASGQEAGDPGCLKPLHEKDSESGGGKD
T1 sequence (P05107 23-769): as the sequence (P05107 23-769, other chains not shown) above

Turning to `COc1cccc(C(=O)NC[C@H](NC(=O)c2ccc(C(=O)NCc3cccc(O)c3)cc2Cl)C(=O)O)c1` [Compound A, N-[2-chloro-4-[[[(3-hydroxyphenyl)methyl]amino]carbonyl]benzoyl]-3-(3-methoxybenzoyl)amino-L-alanine], the IC50 in assay [1] (read-out: LFA-1/ICAM IC50) was found to be 0.0012 µM; in assay [2] (read-out: Mac-1/ICAM IC50), 0.0434 µM.
Take `O=C(NCc1cccc(O)c1)c1ccc(C(=O)N[C@@H](CNC(=O)c2ccccc2)C(=O)O)c(Cl)c1` [Compound B, 3-benzoylamino-N-[2-chloro-4-[[[(3-hydroxyphenyl)methyl]amino]carbonyl]benzoyl]-L-alanine]: the IC50 in assay [1] (read-out: LFA-1/ICAM IC50) amounted to 0.0009 µM; in assay [2] (read-out: Mac-1/ICAM IC50), 0.0312 µM.
The like results for `O=C(NCc1cccc(O)c1)c1ccc(C(=O)N[C@@H](CNC(=O)c2cc([N+](=O)[O-])[nH]n2)C(=O)O)c(Cl)c1` [Compound C, N-[2-chloro-4-[[[(3-hydroxyphenyl)methyl]amino]carbonyl]benzoyl]-3-(5-nitropyrazole-3-carbonyl)amino-L-alanine] were, in that order, 0.0064 µM and 0.101 µM.
The like results for `O=C(NCc1cccc(O)c1)c1ccc(C(=O)N[C@@H](CNC(=O)c2cccs2)C(=O)O)c(Cl)c1` [Compound D, N-[2-chloro-4-[[[(3-hydroxyphenyl)methyl]amino]carbonyl]benzoyl]-3-(thiophene-2-carbonyl)amino-L-alanine] were, in that order, 0.0005 µM and 0.0064 µM.
As to `COc1cc(C(=O)NC[C@H](NC(=O)c2ccc(C(=O)NCc3cccc(O)c3)cc2Cl)C(=O)O)nc2ccccc12` [Compound E, N-[2-chloro-4-[[[(3-hydroxyphenyl)methyl]amino]carbonyl]benzoyl]-3-(4-methoxyquinoline-2-carbonyl)amino-L-alanine], the IC50 in assay [1] (read-out: LFA-1/ICAM IC50) stood at 0.0152 µM; in assay [2] (read-out: Mac-1/ICAM IC50) it was 0.521 µM.
In the case of `O=C(NC[C@H](NC(=O)c1c(Cl)cccc1Cl)C(=O)O)c1ccc(Br)s1` [Compound F, 3-(5-bromothiophene-2-carbonyl)amino-N-(2,6-dichlorobenzoyl)-L-alanine], the figures for the IC50 in assay [1] (read-out: LFA-1/ICAM IC50) and in assay [2] (read-out: Mac-1/ICAM IC50) were 0.0064 µM and 0.0817 µM, respectively.
In the same order, the values of `O=C(NCc1cccc2[nH]ccc12)c1ccc(C(=O)N[C@@H](CNC(=O)c2cccs2)C(=O)O)c(Cl)c1` [Compound G, N-[2-chloro-4-[[(1H-indol-4-ylmethyl)amino]carbonyl]benzoyl]-3-(thiophene-2-carbonyl)amino-L-alanine] are 0.0013 µM and 0.0224 µM.
Take `O=C(CCc1cccc(O)c1)c1ccc(C(=O)N[C@@H](CNC(=O)c2cccs2)C(=O)O)c(Cl)c1` [Compound H, N-[2-chloro-4-[1-oxo-3-(3-hydroxyphenyl)propyl]benzoyl]-3-(thiophene-2-carbonyl)amino-L-alanine]: the IC50 is 0.0014 µM in assay [1] (read-out: LFA-1/ICAM IC50) and 0.0434 µM in assay [2] (read-out: Mac-1/ICAM IC50).
In the same order, the values of `O=C(NC[C@H](NC(=O)c1ccc(-n2nnnc2NCc2cccc(O)c2)cc1Cl)C(=O)O)c1cccs1` [Compound I, N-[2-chloro-4-[5-[[(3-hydroxyphenyl)methyl]amino]tetrazol-1-yl]benzoyl]-3-(thiophene-2-carbonyl)amino-L-alanine] are 0.0026 µM and 0.0755 µM.
The like results for `O=C(NCc1cccc2[nH]ccc12)c1ccc(C(=O)N[C@@H](CNCc2ccccc2)C(=O)O)c(Cl)c1` [Compound J, 3-(phenylmethyl)amino-N-[2-chloro-4-[[(1H-indol-4-ylmethyl)amino]carbonyl]benzoyl]-L-alanine] were, in that order, 0.0119 µM and 1.41 µM.
In the case of `O=C(NCc1cccc(O)c1)c1ccc(C(=O)N[C@@H](CNC(=O)c2ccccn2)C(=O)O)c(Cl)c1` [Example 162], the IC50 in assay [1] (setting [3]) amounted to 0.001 µM; in assay [2] (setting [4]), 0.105 µM.
For the compound `O=C(NCc1cccc(O)c1)c1ccc(C(=O)N[C@@H](CNC(=O)c2cccnc2Cl)C(=O)O)c(Cl)c1` [Example 166], the IC50 came to 0.003 µM in assay [1] (setting [3]) and 0.068 µM in assay [2] (setting [4]).
With `O=C(NCc1cccc(O)c1)c1ccc(C(=O)N[C@@H](CNC(=O)c2ccc(Cl)nc2)C(=O)O)c(Cl)c1` [Example 167], the IC50 in assay [1] (setting [3]) worked out at 0.0022 µM; in assay [2] (setting [4]) it was 0.039 µM.
The like results for `COc1ccc(C(=O)NC[C@H](NC(=O)c2ccc(C(=O)NCc3cccc(O)c3)cc2Cl)C(=O)O)c(OC)n1` [Example 168] were, in that order, 0.012 µM and 0.224 µM.
